# From ChEMBL document CHEMBL1154149, “Antimalarial pharmacodynamics of chalcone derivatives in combination with artemisinin against Plasmodium falciparum in vitro” (Eur J Med Chem, 2009)
# pIC50: −log10 of the molar value.
# Experiments:
# [1] = tested on: Plasmodium falciparum; assay: Antiplasmodial activity against chloroquine-sensitive Plasmodium falciparum 3D7 infected in type B+ human erythrocytes assessed as reduction of hemozoin formation at IC50 after 48 hrs relative to control; assay type: functional; set-up: scale not given: the % may be the effect or the level left
# [2] = tested on: Plasmodium falciparum; assay: Antiplasmodial activity against chloroquine-sensitive Plasmodium falciparum 3D7 infected in type B+ human erythrocytes assessed as inhibition of schizont stage parasite after 12 hrs followed by incubation in drug-free medium for 48 hrs by stage specific inhibition assay relative to control; assay type: functional
# [3] = tested on: Plasmodium falciparum; assay: Antiplasmodial activity against chloroquine-sensitive Plasmodium falciparum 3D7 infected in type B+ human erythrocytes assessed as inhibition of trophozoite stage parasite after 18 hrs followed by incubation in drug-free medium for 48 hrs by stage specific inhibition assay relative to control; assay type: functional
# [4] = tested on: Plasmodium falciparum; assay: Antiplasmodial activity against chloroquine-sensitive Plasmodium falciparum 3D7 infected in type B+ human erythrocytes assessed as inhibition of ring stage parasite after 18 hrs followed by incubation in drug-free medium for 48 hrs by stage specific inhibition assay relative to control; assay type: functional
# [5] = tested on: Plasmodium falciparum; assay: Antiplasmodial activity against chloroquine-sensitive Plasmodium falciparum 3D7 infected in type B+ human erythrocytes assessed as inhibition of sorbitol-induced hemolysis at 10 mM after 15 min by spectrophotometry; assay type: functional; set-up: scale not given: the % may be the effect or the level left
# [6] = tested on: Plasmodium falciparum; assay: Antiplasmodial activity against chloroquine-sensitive Plasmodium falciparum 3D7 infected in type B+ human erythrocytes assessed as inhibition of parasitemia after 48 hrs by Giemsa staining; assay type: functional, organism-based; conditions: 3D7, 48 h
# [7] = tested on: Plasmodium falciparum; assay: Antiplasmodial activity against chloroquine-sensitive Plasmodium falciparum 3D7 infected in type B+ human erythrocytes assessed as inhibition of sorbitol-induced hemolysis at 5 nM after 15 min by spectrophotometry; assay type: functional; set-up: scale not given: the % may be the effect or the level left
# [8] = tested on: Plasmodium falciparum; assay: Antiplasmodial activity against chloroquine-sensitive Plasmodium falciparum 3D7 infected in type B+ human erythrocytes assessed as inhibition of sorbitol-induced hemolysis at 10 uM after 15 min by spectrophotometry; assay type: functional; set-up: scale not given: the % may be the effect or the level left
# [9] = tested on: Plasmodium falciparum; assay: Antiplasmodial activity against chloroquine-sensitive Plasmodium falciparum 3D7 infected in type B+ human erythrocytes assessed as inhibition of sorbitol-induced hemolysis at 10 nM after 15 min by spectrophotometry; assay type: functional; set-up: scale not given: the % may be the effect or the level left
SMILES,Activity [1],inhibition (INH) [2],inhibition (INH) [3],inhibition (INH) [4],Activity [5],other results
O=C(/C=C/c1ccc(Cl)cc1)c1ccc(-n2cncn2)cc1,47.8%,40.1%,65.8%,48.7%,36.1%,
O=C(/C=C/c1ccc(Cl)cc1)c1ccc(-n2cccc2)cc1,48.8%,48.9%,61.5%,51.4%,85.9%,
O=C(/C=C/c1ccc(Cl)cc1)c1ccc(-n2nnc3ccccc32)cc1,47.7%,41%,70.9%,47.9%,90%,
C[C@@H]1CC[C@H]2[C@@H](C)C(=O)O[C@@H]3O[C@@]4(C)CC[C@@H]1[C@]32OO4 [ARTEMISININ],48.3%,,,,,pIC50 [6]: 8.40; Activity [7]: 90.9%
NS(=O)(=O)c1cc(C(=O)O)c(NCc2ccco2)cc1Cl [FUROSEMIDE],,,,,,Activity [8]: 56.3%
C=CC(C)(C)c1cc(/C=C/C(=O)c2ccc(O)cc2)c(OC)cc1O [LICOAGROCHACONE A],,,,,,pIC50 [6]: 8.38
CCc1nc(N)nc(N)c1-c1ccc(Cl)cc1 [PYRIMETHAMINE],56.3%,,,,,Activity [9]: 92.2%
